The values that follow come from patent US10729674B2, “Nanoparticle isoflavone compositions and methods of making and using the same” (Humanetics Corporation, priority 2010, dated 2020).

SMILES strings stand for the structures. ≈ marks a conversion by molar mass, not a printed value. Where two headings read alike, the source gives them in different places.

Data set [1] in a line: Solubility of genistein in vehicles at 25° C. It counts as physicochemical. As for the experimental part:
Calculated pka's for genistein range from 7-9, with the predicted solubility increasing above pH 7 in accordance with the lowest pKa. The calculated properties were used to design the appropriate pH range for the pH-solubility profile of genistein in several acceptable cosolvents, which was established to be pH 6-9.
The solubility of genistein in water is not detectable at pH 6-7, which implies the solubility is less than 0.02 mg/mL or ˜0.00002 g/g H2O (lowest concentration), Based on the pH-solubility and solubility in cosolvents, it was determined that PEG400 would be the cosolvent to achieve highest solubility. Since parenteral formulations preferably have a maximum of 50% organic component, the addition of Ethanol (EtOH), Nmethylpyrrolidone (NMP) and a surfactant were considered, since these would be expected to enhance absorption from the injection site. Ethanol has the added benefit of reducing viscosity. […] Solubility was further evaluated in two aqueous/organic mixtures with concentrations acceptable for a parenteral dosage form. Additionally, cyclodextrin formulations were evaluated.

For data set [2] the following is noted: 25° C.; cited from earlier work.

`O=c1c(-c2ccc(O)cc2)coc2cc(O)cc(O)c12` [Genistein, 5,7-dihydroxy-3-(4-hydroxyphenyl)-chromen-4-one]: the solubility in data set [1] (25 °C, aqueous with cosolvent or surfactant or cyclodextrin, thermodynamic from solid, 30% Hydroxypropyl-β-cyclodextrin, read-out: Solubility of GENISTEIN at 25° C.) was 6 mg/mL (≈ 22.2 mM); in data set [1] (25 °C, aqueous with cosolvent or surfactant or cyclodextrin, thermodynamic from solid, 30% Sulfobutylether-β-cyclodextrin, read-out: Solubility of GENISTEIN at 25° C.), 8 mg/mL (≈ 29.6 mM); in data set [1] (25 °C, organic solvent or mixture, thermodynamic from solid, Dimethyl acetamide (DMA), read-out: Solubility at 25° C.) it was 141 mg/mL (≈ 523 mM); in data set [1] (25 °C, organic solvent or mixture, thermodynamic from solid, Ethanol, read-out: Solubility at 25° C.), 25 mg/mL (≈ 92.5 mM); in data set [1] (25 °C, organic solvent or mixture, thermodynamic from solid, N-methyl pyrrolidone (NMP), read-out: Solubility at 25° C.), 238 mg/mL (≈ 881 mM); in data set [1] (25 °C, organic solvent or mixture, thermodynamic from solid, Polyethylene Glycol 300 (PEG300), read-out: Solubility at 25° C.) it was 110 mg/mL (≈ 409 mM). The solubility in data set [1] (25 °C, organic solvent or mixture, thermodynamic from solid, Polyethylene Glycol 400 (PEG400), read-out: Solubility at 25° C.) is 115 mg/mL (≈ 426 mM); in data set [1] (25 °C, organic solvent or mixture, thermodynamic from solid, Propylene Glycol, read-out: Solubility at 25° C.) it was 6.2 mg/mL (≈ 22.9 mM); in data set [1] (25 °C, pH 6, aqueous buffer, thermodynamic from solid, pH 6-7, not detectable, lowest concentration, read-out: solubility in water), below 0.02 mg/mL; in data set [1] (25 °C, pH 7, aqueous with cosolvent or surfactant or cyclodextrin, thermodynamic from solid, 10% Polysorbate 80/10% EtOH/40% PEG400/40% 25 mM Phosphate Buffered Saline (pH 7), read-out: Solubility of GENISTEIN at 25° C.) it was 12 mg/mL (≈ 44.4 mM); in data set [1] (25 °C, pH 7, aqueous with cosolvent or surfactant or cyclodextrin, thermodynamic from solid, 10% Polysorbate 80/10% NMP/40% PEG400/40% 25 mM Phosphate Buffered Saline (pH 7), read-out: Solubility of GENISTEIN at 25° C.), 19 mg/mL (≈ 70.3 mM); in data set [1] (25 °C, pH 7, aqueous with cosolvent or surfactant or cyclodextrin, thermodynamic from solid, 10% Polysorbate 80/40% PEG400/50% 25 mM Phosphate Buffered Saline (pH 7), read-out: Solubility of GENISTEIN at 25° C.), 11 mg/mL (≈ 40.7 mM). The same compound showed a solubility at 7 days in data set [1] (25 °C, pH 9, aqueous buffer, thermodynamic from solid, Borate buffer pH 9, 7 days) of 0.043 mg/mL (≈ 0.159 mM). Besides, in data set [1] (25 °C, pH 9, aqueous buffer, thermodynamic from solid, Borate buffer pH 9, 14 days), the solubility at 14 days amounted to 0.005 mg/mL (≈ 0.0185 mM). The “Solubility at 25° C.” value is given as “Not detected” in data set [1] (Borate buffer pH 9, 3 days); “Not detected” in data set [1] (Citrate buffer pH 6); “Not detected” in data set [1] (Phosphate buffer pH 7); “Not detected” in data set [1] (TRIS buffer pH 8). The same compound showed a solubility in water in data set [1] (pH 6-7, not detectable, lowest concentration) below 0.00002 g/g H2O. Moreover, the “stability in pH-solubility profile” value in data set [1] (pH 9) is “degradation was observed”. In addition, in data set [2], the “parts water required to dissolve one part genistein” value is “greater than 50,000 parts water”.
